Assay results: patent publication US5976813A, “Continuous format high throughput screening” (priority 1997, dated 1999)

How the values were obtained:
VanA = conditions: statement on known inhibitor used as positive control; cited from earlier work
[1] = molecular target: S. Cerevisiae Elongation Factor 3 (Saccharomyces cerevisiae, UniProt P16521); assay: Two-step gel assay for phosphate generated by EF-3 ATPase activity stimulated by ribosome binding; format: biochemical; conditions: inhibitor amounts 5 picomole to 200 picomole; FIG. 7
Sequence of S. Cerevisiae Elongation Factor 3 (P16521 whole entry): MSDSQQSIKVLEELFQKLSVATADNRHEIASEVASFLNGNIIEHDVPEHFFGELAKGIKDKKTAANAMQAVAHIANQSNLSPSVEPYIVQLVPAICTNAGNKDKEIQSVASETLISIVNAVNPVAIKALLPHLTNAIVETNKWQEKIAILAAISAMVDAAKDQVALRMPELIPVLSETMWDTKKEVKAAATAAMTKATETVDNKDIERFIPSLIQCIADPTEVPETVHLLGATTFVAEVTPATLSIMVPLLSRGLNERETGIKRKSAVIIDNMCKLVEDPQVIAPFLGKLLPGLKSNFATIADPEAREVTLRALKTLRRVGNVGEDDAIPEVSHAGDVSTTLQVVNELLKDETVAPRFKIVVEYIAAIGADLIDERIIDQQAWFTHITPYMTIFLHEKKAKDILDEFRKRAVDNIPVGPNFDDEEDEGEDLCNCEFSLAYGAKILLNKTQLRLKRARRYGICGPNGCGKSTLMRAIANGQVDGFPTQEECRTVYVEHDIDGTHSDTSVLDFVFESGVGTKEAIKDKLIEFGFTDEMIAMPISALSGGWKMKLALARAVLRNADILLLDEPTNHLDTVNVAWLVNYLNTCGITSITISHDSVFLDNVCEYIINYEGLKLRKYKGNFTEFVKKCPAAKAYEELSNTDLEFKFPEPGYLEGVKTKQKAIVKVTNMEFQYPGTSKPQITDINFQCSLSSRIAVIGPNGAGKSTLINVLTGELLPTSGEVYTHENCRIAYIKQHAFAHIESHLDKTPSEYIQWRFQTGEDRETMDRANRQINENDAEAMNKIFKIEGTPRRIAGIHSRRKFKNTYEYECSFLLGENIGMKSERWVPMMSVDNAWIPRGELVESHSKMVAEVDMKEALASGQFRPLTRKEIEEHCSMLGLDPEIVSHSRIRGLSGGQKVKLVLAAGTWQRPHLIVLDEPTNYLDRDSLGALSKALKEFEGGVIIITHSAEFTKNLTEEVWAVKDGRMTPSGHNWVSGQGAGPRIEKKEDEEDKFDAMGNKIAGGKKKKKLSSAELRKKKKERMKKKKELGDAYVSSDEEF
Description: A two-step gel assay for detecting phosphate generated by S. Cerevisiae Elongation Factor 3 ATPase activity stimulated by Ribosomes binding
When fungal elongation factor 3 (EF-3) interacts with ribosomes, […] is stimulated. The inventors have applied CF-HTS to the assay for this activity.
An enzyme gel containing EF-3 (a highly temperature sensitive enzyme) and yeast ribosomes in EF-3 assay buffer was prepared. A substrate gel containing 1 mM ATP in assay buffer was also prepared. Both gels contained 2% dimethyl sulfoxide in low melting agarose (Gibco BRL), and were prepared at 37° C. and allowed to set for 30 minutes at 4° C. Serial dilutions of Poly-L-lysine, an inhibitor of EF-3 used as a control sample, was spotted onto PVDC film and dried (sample matrix). The assay was then conducted as in Example 1 by pre-incubating the enzyme gel with the inhibitors on the sample matrix. Then the enzyme gel was placed in contact with the substrate gel for 20 minutes. As in Example 1, the enzyme and substrate gels were stained with Malachite green/Ammonium Molybdate color development cocktail. Then the enzyme gel was imaged with a CCD camera. The inhibitor spots appear as clearer zones in a green background. FIG. 7 illustrates color development on the gel where inhibitor amounts varied from 5 picomole to 200 picomole.

IL-8a receptor = assay: Gel/filter CF-HTS control: ^125 I-IL-8 binding to HEK cells expressing the IL-8a receptor; conditions: ^125 I-IL-8 in agarose gel diffusing through cell matrix; FIG. 12
Description: HEK cells (ATCC, Bethesda, M.D.) expressing the IL-8a receptor were plated on a 75 mm diameter transwell membrane filter (Corning Costar Corp, Cambridge, Mass.) at a density of about 20 million cells per plate. They were allowed to attach to the membrane filter overnight in buffer (RPMI from Life Technologies, Grand Island, N.Y.) containing 10 mM Hepes (Sigma, St Louis, Mo.) at pH 7.2 and 37° C. After the cells were attached to the filter, the media was removed, and the cells were washed with fresh buffer to remove any unattached cells. The filters were inverted cell-side down and placed at an angle to allow excess media to drain, and then dried for 20 minutes. This was timed so that the cell matrix could be immediately used in the assay described below.
The ligand matrix was prepared by soaking ^125 I labeled IL-8 (Amersham, Inc., Arlington Heights, Ill.) into an agarose gel made by mixing 0.1 g agarose with 10 ml buffer, heating until molten, and then casting in a 8×7×0.075 cm gel apparatus. The gels were soaked overnight at RT while slowly mixing on a rotating platform (New Brunswick Scientific Co., Inc, Edison, N.J.). After soaking, the gels were dried for 20 minutes at RT just prior to use. This was timed so that the gel could be immediately used in the assay. […]

Compound: N[C@@H]1CONC1=O [D-cycloserine]
- inhibition of VanA (VanA): inhibits VanA in a dose-dependent manner

Compound: Poly-L-lysine
- inhibition of EF-3 in gel assay (clearer zones in green background) [1]: dose dependent signal of the inhibitor

Compound: ^125 I-IL-8: ^125 I labeled IL-8 (Amersham)
- binding to HEK cells expressing the IL-8a receptor (IL-8a receptor): dose response
